Values of other authors as cited in US20080152704A1, “Dosage Forms of Palonosetron Hydrochloride Having Improved Stability and Bioavailability” (priority 2006, published 2008).

Assays:
5-HT3 receptor = biological target: T1, 5-HT3 receptor (Homo sapiens, UniProt P46098)
T1 sequence (P46098 24-478): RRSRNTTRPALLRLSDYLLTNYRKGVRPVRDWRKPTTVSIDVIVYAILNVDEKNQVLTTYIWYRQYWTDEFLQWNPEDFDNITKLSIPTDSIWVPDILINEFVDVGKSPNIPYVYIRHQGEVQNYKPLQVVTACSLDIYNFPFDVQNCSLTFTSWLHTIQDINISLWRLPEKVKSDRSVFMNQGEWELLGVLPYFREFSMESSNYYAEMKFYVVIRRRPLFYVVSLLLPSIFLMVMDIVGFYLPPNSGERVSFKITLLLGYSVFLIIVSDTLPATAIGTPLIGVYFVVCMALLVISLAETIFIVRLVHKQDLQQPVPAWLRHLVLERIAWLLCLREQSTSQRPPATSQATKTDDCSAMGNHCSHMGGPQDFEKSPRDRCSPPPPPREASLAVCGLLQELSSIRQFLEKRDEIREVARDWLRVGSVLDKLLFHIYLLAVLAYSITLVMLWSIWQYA

Structure (SMILES): Cl.O=C1c2cccc3c2[C@H](CCC3)CN1[C@@H]1CN2CCC1CC2 [Palonosetron, (3aS)-2-[(S)-1-Azabicyclo [2.2.2]oct-3-yl]-2,3,3a,4,5,6-hexahydro-1-oxo-1Hbenz[de] isoquinoline hydrochloride]
- affinity as an antagonist for the 5-HT3 receptor (5-HT3 receptor): high affinity
- affinity for other receptors such as dopamine receptors (dopamine receptors): low affinity
